Data as given in ChEMBL document CHEMBL3745702, “Synthesis of (3S,4S)-4-aminopyrrolidine-3-ol derivatives and biological evaluation for their BACE1 inhibitory activities” (Bioorg Med Chem Lett, 2016).
Values belong to the molecule of their own block, whether it stands above or below them.

Key:
[1] = target: T1, Beta-secretase 1 (Homo sapiens, UniProt P56817); test: Inhibition of BACE1 (unknown origin) by FRET assay
[2] = target: T2, Cathepsin D (Homo sapiens, UniProt P07339); test: Inhibition of cathepsin D (unknown origin) at 10 uM
T2 sequence (P07339 65-162 limits assumed): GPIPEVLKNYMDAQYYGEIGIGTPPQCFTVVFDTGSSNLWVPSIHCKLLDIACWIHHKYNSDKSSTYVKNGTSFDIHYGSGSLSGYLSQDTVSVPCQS
T2 sequence (P07339 169-412 limits assumed): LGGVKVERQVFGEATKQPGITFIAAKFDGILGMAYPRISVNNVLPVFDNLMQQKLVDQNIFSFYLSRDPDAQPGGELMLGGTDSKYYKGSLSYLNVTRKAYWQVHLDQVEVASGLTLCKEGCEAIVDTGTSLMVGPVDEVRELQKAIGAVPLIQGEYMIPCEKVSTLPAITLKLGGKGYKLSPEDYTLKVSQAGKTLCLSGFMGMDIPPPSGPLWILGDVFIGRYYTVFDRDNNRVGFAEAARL

[3] = Permeability from apical to basolateral side in MDCK cells at 50 uM; assay type: ADME, cell-based, Canis lupus familiaris; conditions: dog
[4] = target: T1, Beta-secretase 1; test: Inhibition of BACE1 in […] PC12 cells expressing APP Sweden mutant at 10 uM; assay type: cell-based; conditions: PC-12
[5] = target: T3, Beta-secretase 2 (Homo sapiens, UniProt Q9Y5Z0); test: Inhibition of BACE2 (unknown origin)
T3 sequence (Q9Y5Z0 whole entry): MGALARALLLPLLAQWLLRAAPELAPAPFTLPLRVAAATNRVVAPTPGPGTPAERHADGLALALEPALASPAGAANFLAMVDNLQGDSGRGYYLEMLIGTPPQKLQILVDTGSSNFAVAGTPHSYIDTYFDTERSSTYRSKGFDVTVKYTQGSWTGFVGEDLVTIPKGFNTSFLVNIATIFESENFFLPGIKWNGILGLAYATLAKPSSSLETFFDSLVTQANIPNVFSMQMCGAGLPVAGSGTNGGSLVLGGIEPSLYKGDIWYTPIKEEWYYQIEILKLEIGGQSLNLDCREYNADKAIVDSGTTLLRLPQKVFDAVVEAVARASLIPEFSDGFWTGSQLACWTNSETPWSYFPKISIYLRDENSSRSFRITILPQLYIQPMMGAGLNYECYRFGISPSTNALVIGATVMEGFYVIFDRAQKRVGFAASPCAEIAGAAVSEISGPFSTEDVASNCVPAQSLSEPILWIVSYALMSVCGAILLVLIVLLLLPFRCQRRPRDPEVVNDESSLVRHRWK

[6] = target: T2, Cathepsin D; test: Inhibition of cathepsin D (unknown origin)
[7] = target: T1, Beta-secretase 1; test: Inhibition of BACE1 (unknown origin)
[8] = target: T1, Beta-secretase 1; test: Inhibition of BACE1 in […] PC12 cells expressing APP Sweden mutant; assay type: cell-based, PC-12

T1 sequence (P56817 whole entry): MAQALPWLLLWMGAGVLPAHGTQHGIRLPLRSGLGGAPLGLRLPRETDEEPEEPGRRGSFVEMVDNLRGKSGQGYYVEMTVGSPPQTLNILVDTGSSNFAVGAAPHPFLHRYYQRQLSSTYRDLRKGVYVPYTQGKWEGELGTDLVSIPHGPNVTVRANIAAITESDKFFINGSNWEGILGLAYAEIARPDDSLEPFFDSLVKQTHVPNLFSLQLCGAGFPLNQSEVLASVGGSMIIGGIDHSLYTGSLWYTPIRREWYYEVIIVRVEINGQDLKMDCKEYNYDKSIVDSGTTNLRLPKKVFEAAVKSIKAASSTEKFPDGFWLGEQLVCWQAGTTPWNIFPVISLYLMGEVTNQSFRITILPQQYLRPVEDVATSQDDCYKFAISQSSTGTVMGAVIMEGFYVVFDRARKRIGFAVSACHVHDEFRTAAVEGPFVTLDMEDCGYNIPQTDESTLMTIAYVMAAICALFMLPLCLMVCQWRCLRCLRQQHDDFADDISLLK

Compound: Cc1ccc2[nH]c(N[C@H]3CN(C(=O)OC(C)(C)C)C[C@@H]3OC(=O)c3ccc(-c4ccccc4)cc3)nc2c1
IC50 [1]: 210 nM

Compound: COc1ccc2[nH]c(N[C@H]3CN(C(=O)OC(C)(C)C)C[C@@H]3OC(=O)c3ccc(-c4ccccc4)cc3)nc2c1
IC50 [1]: 450 nM

Compound: Cc1ccc2[nH]c(N[C@H]3CN(C(=O)OC(C)(C)C)C[C@@H]3OC(=O)c3cccc(-c4ccc(F)cc4)c3)nc2c1
IC50 [1]: 190 nM

Compound: CC(C)c1ccc(C(=O)O[C@H]2CN(S(=O)(=O)c3ccccc3)C[C@@H]2Nc2nc3cc(F)ccc3[nH]2)cc1
IC50 [1]: 720 nM

Compound: CC(C)(C)OC(=O)N1C[C@H](Nc2nc3cc(Cl)ccc3[nH]2)[C@@H](OC(=O)c2ccc(-c3ccccc3)cc2)C1
IC50 [1]: 440 nM

Compound: Cc1ccc2[nH]c(N[C@H]3CN(C(=O)c4ccccc4)C[C@@H]3OC(=O)c3ccc(-c4ccccc4)cc3)nc2c1
inhibition [2]: 4.2% | Papp A→B at 50 µM [3]: 5.2 ×10⁻⁶ cm/s | inhibition [4]: 52% | IC50 [5]: 5700 nM | IC50 [1]: 390 nM | IC50 [6]: > 10000 nM

Compound: CC(C)(C)OC(=O)N1C[C@H](Nc2nc3cc(Cl)ccc3[nH]2)[C@@H](OC(=O)c2cccc(Oc3ccccc3)c2)C1
IC50 [1]: 360 nM

Compound: CC(=O)N1C[C@H](Nc2nc3cc(C)ccc3[nH]2)[C@@H](OC(=O)c2ccc(-c3ccccc3)cc2)C1
IC50 [1]: 720 nM

Compound: COc1ccc(N2CCN([C@@H]3CN(C(=O)Nc4cc(Cl)cc(Cl)c4)CC[C@H]3OC(=O)c3ccc(Oc4ccccc4)cc3)CC2)cc1
IC50 [7]: 600 nM

Compound: COC(=O)CN1C[C@H](Nc2nc3cc(C)ccc3[nH]2)[C@@H](OC(=O)c2ccc(-c3ccccc3)cc2)C1
IC50 [1]: 570 nM

Compound: Cc1ccc2[nH]c(N[C@H]3CNC[C@@H]3OC(=O)c3ccc(-c4ccccc4)cc3)nc2c1
inhibition [2]: 4.5% | Papp A→B at 50 µM [3]: 4.8 ×10⁻⁶ cm/s | IC50 [5]: 4300 nM | IC50 [1]: 660 nM | IC50 [6]: > 10000 nM | IC50 [8]: 3200 nM

Compound: CCCS(=O)(=O)N1C[C@H](Nc2nc3cc(F)ccc3[nH]2)[C@@H](OC(=O)c2ccc(N(C)C)cc2)C1
IC50 [1]: 3150 nM

Compound: CCCS(=O)(=O)N1C[C@H](Nc2nc3cc(F)ccc3[nH]2)[C@@H](OC(=O)c2ccc(C(C)C)cc2)C1
IC50 [1]: 670 nM

Further lines, results first:

IC50 [1]: > 5000 nM
Compound: CC(C)c1ccc(CO[C@H]2CNC[C@@H]2Nc2nc3cc(F)ccc3[nH]2)cc1

inhibition [2]: 1.1% | Papp A→B at 50 µM [3]: 1.5 ×10⁻⁶ cm/s | inhibition [4]: 40% | IC50 [5]: 10100 nM | IC50 [1]: 50 nM | IC50 [6]: > 10000 nM
Compound: CC(C)(C)OC(=O)N1C[C@H](Nc2nc3cc(F)ccc3[nH]2)[C@@H](OC(=O)c2ccc(-c3ccccc3)cc2)C1

IC50 [1]: 480 nM
Compound: CC(C)c1ccc(CO[C@H]2CN(S(=O)(=O)c3ccccc3)C[C@@H]2Nc2nc3cc(F)ccc3[nH]2)cc1

IC50 [1]: 730 nM
Compound: CC(C)c1ccc(CO[C@H]2CN(C(=O)OC(C)(C)C)C[C@@H]2Nc2nc3cc(F)ccc3[nH]2)cc1

IC50 [1]: > 5000 nM
Compound: CC(C)c1ccc(CO[C@H]2CN(CCO)C[C@@H]2Nc2nc3cc(F)ccc3[nH]2)cc1

IC50 [1]: 640 nM
Compound: CCCS(=O)(=O)N1C[C@H](Nc2nc3cc(F)ccc3[nH]2)[C@@H](OCc2ccc(C(C)C)cc2)C1

inhibition [2]: 5.7% | Papp A→B at 50 µM [3]: 13 ×10⁻⁶ cm/s | IC50 [5]: 8900 nM | IC50 [1]: 120 nM | IC50 [6]: > 10000 nM | IC50 [8]: 1700 nM
Compound: CC(C)(C)OC(=O)N1C[C@H](Nc2nc3cc(F)ccc3[nH]2)[C@@H](OCc2ccc(-c3ccccc3)cc2)C1

inhibition [2]: 1.4% | Papp A→B at 50 µM [3]: 2.3 ×10⁻⁶ cm/s | inhibition [4]: 34% | IC50 [5]: 4400 nM | IC50 [1]: 70 nM | IC50 [6]: > 10000 nM
Compound: CC(C)c1ccc(C(=O)O[C@H]2CN(C(=O)OC(C)(C)C)C[C@@H]2Nc2nc3cc(F)ccc3[nH]2)cc1

IC50 [1]: 1350 nM
Compound: CN(C)c1ccc(C(=O)O[C@H]2CN(C(=O)OC(C)(C)C)C[C@@H]2Nc2nc3cc(F)ccc3[nH]2)cc1

IC50 [1]: > 5000 nM
Compound: CC(C)c1ccc(CO[C@H]2CN(CC(N)=O)C[C@@H]2Nc2nc3cc(F)ccc3[nH]2)cc1
